Reference: patent US9545105B2, “1-(heterocyclic carbonyl) piperidines” (BAYER INTELLECTUAL PROPERTY GMBH, priority 2010, dated 2017)
Where “and” joins values, the source holds several entries; their conditions need not be identical. Equal values may be shown once.

Legend:
Alternaria solani = experiment: In vivo preventive test on Alternaria solani (tomato); conditions: 500 ppm of active ingredient, evaluated 7 days after inoculation
Description: Solvent: 49 parts by weight of N,N-dimethylformamide Emulsifier: 1 part by weight of Alkylarylpolyglycolether To produce a suitable preparation of active compound, 1 part by weight of active compound is mixed with the stated amounts of solvent and emulsifier, and the concentrate is diluted with water to the desired concentration. To test for preventive activity, young plants are sprayed with the preparation of active compound at the stated rate of application. One day after this treatment, the plants are inoculated with an aqueous spore suspension of Alternaria solani. The plants remain for one day in an incubation cabinet at approximately 22° C. and a relative atmospheric humidity of 100%. Then the plants are placed in an incubation cabinet at approximately 20° C. and a relative atmospheric humidity of 96%. The test is evaluated 7 days after the inoculation. 0% means an efficacy which corresponds to that of the untreated control while an efficacy of 100% means that no disease is observed.

[1] = log P by HPLC on reversed-phase column (C 18), EEC Directive 79/831 Annex V.A8; type: physicochemical; conditions: HPLC on reversed-phase column (C 18); 40° C.; 0.1% aqueous formic acid and acetonitrile; linear gradient 10% to 90% acetonitrile
Description: In table 1, the log P values were determined in accordance with EEC Directive 79/831 Annex V.A8 by HPLC (High Performance Liquid Chromatography) on a reversed-phase column (C 18), using the method described below: Temperature: 40° C.; Mobile phases: 0.1% aqueous formic acid and acetonitrile; linear gradient from 10% acetonitrile to 90% acetonitrile. Calibration was carried out using unbranched alkan-2-ones (comprising 3 to 16 carbon atoms) with known log P values (determination of the log P values by the retention times using linear interpolation between two successive alkanones). lambda-max-values were determined using UV-spectra from 200 nm to 400 nm and the peak values of the chromatographic signals.

Sphaerotheca fuliginea = experiment: In vivo preventive test on Sphaerotheca fuliginea (cucumber); conditions: 500 ppm of active ingredient, evaluated 7 days after inoculation
Description: Solvent: 49 parts by weight of N,N-dimethylformamide Emulsifier: 1 part by weight of Alkylarylpolyglycolether To produce a suitable preparation of active compound, 1 part by weight of active compound is mixed with the stated amounts of solvent and emulsifier, and the concentrate is diluted with water to the desired concentration. To test for preventive activity, young plants are sprayed with the preparation of active compound at the stated rate of application. One day after this treatment, the plants are inoculated with an aqueous spore suspension of Sphaerotheca fuliginea. Then the plants are placed in a greenhouse at approximately 23° C. and a relative atmospheric humidity of approximately 70%. The test is evaluated 7 days after the inoculation. 0% means an efficacy which corresponds to that of the untreated control, while an efficacy of 100% means that no disease is observed.

Pyrenophora teres = experiment: In vivo preventive test on Pyrenophora teres (barley); conditions: 500 ppm of active ingredient, evaluated 7-9 days after inoculation
Description: Solvent: 49 parts by weight of N,N-dimethylformamide Emulsifier: 1 part by weight of alkylaryl polyglycol ether To produce a suitable preparation of active compound, 1 part by weight of active compound is mixed with the stated amounts of solvent and emulsifier, and the concentrate is diluted with water to the desired concentration. To test for preventive activity, young plants are sprayed with the preparation of active compound at the stated rate of application. One day after this treatment, the plants are inoculated with an aqueous spore suspension of Pyrenophora teres. The plants remain for 48 hours in an incubation cabinet at 22° C. and a relative atmospheric humidity of 100%. Then the plants are placed in a greenhouse at a temperature of approximately 20° C. and a relative atmospheric humidity of approximately 80%. The test is evaluated 7-9 days after the inoculation. 0% means an efficacy which corresponds to that of the untreated control while an efficacy of 100% means that no disease is observed.

SMILES	logP [1]	Efficacy (Alternaria solani)	Efficacy (Sphaerotheca fuliginea)	Efficacy (Pyrenophora teres)
Cc1ccccc1C1CCCCN1C(=O)c1c(C(F)F)nn(C)c1F (stereo not shown) [Example 6]	3.21	100%	95%	100%
Cc1ccccc1C1CCCCN1C(=S)c1c(C(F)F)nn(C)c1F (stereo not shown) [Example 7]	3.81	95%	100%	100%
Cc1ccc(C2CCCCN2C(=O)c2c(C(F)F)nn(C)c2F)cc1C (stereo not shown) [Example 9]	3.64	95%	93%	100%
Cn1nc(C(F)F)c(C(=O)N2CCCCC2c2ccccc2Cl)c1F (stereo not shown) [Example 41]	3.31	100%	100%	100%
Cn1nc(C(F)F)c(C(=S)N2CCCCC2c2ccccc2Cl)c1F (stereo not shown) [Example 42]	4.00	100%	100%	100%
Cn1nc(C(F)F)c(C(=O)N2CCCCC2c2cccc(Cl)c2)c1F (stereo not shown) [Example 48]	3.39	100%	100%	100%
Cn1nc(C(F)F)c(C(=S)N2CCCCC2c2cccc(Cl)c2)c1F (stereo not shown) [Example 49]	4.06	100%	98%	100%
Cn1nc(C(F)F)c(C(=O)N2CCCCC2c2ccc(Cl)cc2)c1F (stereo not shown) [Example 56]	3.46	100%	79%	100%
Cn1nc(C(F)F)c(C(=S)N2CCCCC2c2ccc(Cl)cc2)c1F (stereo not shown) [Example 57]	4.16	100%	70%	100%
COc1cc(OC)cc(C2CCCCN2C(=O)c2c(C)nn(C)c2F)c1 (stereo not shown) [Example 68]	2.56	80%	83%	95%
Cn1nc(C(F)F)c(C(=O)N2CCCCC2c2ccc(Cl)cc2Cl)c1F (stereo not shown) [Example 81]	3.87	100%	94%	100%
CCc1nn(C)c(F)c1C(=O)N1CCCCC1c1cc(Cl)ccc1Cl (stereo not shown) [Example 82]	3.67	95%	79%	90%
Cn1nc(C(F)F)c(C(=O)N2CCCCC2c2ccccc2Br)c1F (stereo not shown) [Example 91]	3.39	100%	95%	100%
Cn1nc(C(F)F)c(C(=S)N2CCCCC2c2ccccc2Br)c1F (stereo not shown) [Example 92]	3.92	95% and 100%	100%	100%
Cn1nc(C(F)F)c(C(=O)N2CCCCC2c2cccc(Br)c2)c1F (stereo not shown) [Example 97]	3.51	100%	96%	100%
Cn1nc(C(F)F)c(C(=S)N2CCCCC2c2cccc(Br)c2)c1F (stereo not shown) [Example 98]	4.16	100%	100%	100%
Cn1nc(C(F)F)c(C(=O)N2CCCCC2c2cccc(Oc3ccccc3)c2)c1F (stereo not shown) [Example 115]	3.99	100%	95%	100%
Cn1nc(C(F)F)c(C(=O)N2CCCCC2c2ccc3ccccc3c2)c1F (stereo not shown) [Example 122]	3.69	100%	94%	100%
Cn1nc(C(F)F)c(C(=S)N2CCCCC2c2ccc3ccccc3c2)c1F (stereo not shown) [Example 123]	4.36	90%	88%	100%
CCc1noc(C)c1C(=O)N1CCCCC1c1ccc(Br)s1 (stereo not shown) [Example 126]	3.67		95%	
CC(c1ccccc1)C1CCCCN1C(=O)c1c(C(F)F)nn(C)c1F (stereo not shown) [Example 138]	3.39	100%	98%	100%
CC(c1ccccc1Cl)C1CCCCN1C(=O)c1c(C(F)F)nn(C)c1Cl (stereo not shown) [Example 164]	4.06	89%		100%
Cn1nc(C(F)F)c(C(=O)N2CCCCC2Cc2cccc(C(F)(F)F)c2)c1F (stereo not shown) [Example 169]	3.59	100%		100%

Further lines, with some results ahead:

logP [1]	SMILES	Efficacy (Alternaria solani)	Efficacy (Sphaerotheca fuliginea)	Efficacy (Pyrenophora teres)
3.87	Cn1nc(C(F)F)c(C(=O)N2CCCCC2COc2ccc3ccccc3c2)c1Cl (stereo not shown) [Example 172]	80%		90%
3.68	Cn1nc(C(F)F)c(C(=O)N2CCCCC2COc2ccc3ccccc3c2)c1F (stereo not shown) [Example 173]	100%		95%
3.37	Cn1nc(C(F)F)c(C(=O)N2CCCCC2CCc2ccccc2)c1F (stereo not shown) [Example 177]	100%		95%
4.06	Cn1nc(C(F)F)c(C(=S)N2CCCCC2CCc2ccccc2)c1F (stereo not shown) [Example 179]	95%		100%
4.11	Cc1cc(C)cc(OCCC2CCCCN2C(=O)c2c(C(F)F)nn(C)c2Cl)c1 (stereo not shown) [Example 180]	80%		80%
3.92	Cc1cc(C)cc(OCCC2CCCCN2C(=O)c2c(C(F)F)nn(C)c2F)c1 (stereo not shown) [Example 181]	100%		100%
3.29	Cn1nc(C(F)F)c(C(=O)N2CCCCC2CCOc2ccc(F)cc2F)c1F (stereo not shown) [Example 182]	100%		100%
3.46	Cn1nc(C(F)F)c(C(=O)N2CCCCC2CCOc2ccc(F)cc2F)c1Cl (stereo not shown) [Example 183]	95%		100%
4.26	Cn1nc(C(F)F)c(C(=O)N2CCCCC2CCOc2ccc(Cl)cc2Cl)c1Cl (stereo not shown) [Example 184]	95%		100%
4.06	Cn1nc(C(F)F)c(C(=O)N2CCCCC2CCOc2ccc(Cl)cc2Cl)c1F (stereo not shown) [Example 185]	100%		95%
4.39	Cn1nc(C(F)F)c(C(=O)N2CCCCC2CCOc2ccccc2-c2ccccc2)c1Cl (stereo not shown) [Example 186]	80%		95%
4.21	Cn1nc(C(F)F)c(C(=O)N2CCCCC2CCOc2ccccc2-c2ccccc2)c1F (stereo not shown) [Example 187]	95%		95%
4.49	Cn1nc(C(F)F)c(C(=O)N2CCCCC2CCOc2ccc(-c3ccccc3)cc2)c1Cl (stereo not shown) [Example 188]	70%		95%
4.31	Cn1nc(C(F)F)c(C(=O)N2CCCCC2CCOc2ccc(-c3ccccc3)cc2)c1F (stereo not shown) [Example 189]	100%		95%
4.09	Cn1nc(C(F)F)c(C(=O)N2CCCCC2CCOc2ccc3ccccc3c2)c1Cl (stereo not shown) [Example 190]	90%		95%
3.92	Cn1nc(C(F)F)c(C(=O)N2CCCCC2CCOc2ccc3ccccc3c2)c1F (stereo not shown) [Example 191]	100%		100%
3.25	Cn1nc(C(F)F)c(C(=O)N2CCCCC2CCc2cccs2)c1F (stereo not shown) [Example 194]	100%		100%
3.74	Cn1nc(C(F)F)c(C(=O)N2CCCCC2CCOc2ccc(C(F)(F)F)cn2)c1Cl (stereo not shown) [Example 195]	100%		95%
